We go through 15 molecules from patent US20070122360A1, “Nonaqueous gel composition for tooth whitening and tooth whitening set” (LION CORPORATION, priority 2003, published 2007).

A short description of data set [1]: Measurement of relative permittivity (LCR meter, 100 kHz, 1 V). The data set is classed as physicochemical.
Experimental: The sample (100 mL) was tested for relative permittivity at 25° C. at a frequency of 100 kHz and a voltage of 1 V by using an LCR meter (HP4284A, with HP16452A electrode for liquid, from Hewlett Packard).
The nature of data set [2]: Measurement of vapor pressure (vapor-liquid equilibrium apparatus).
The nature of data set [3]: Solubility of ingredient (B) in aqueous solution of 1 mmol/L calcium chloride. To be noted: 0.1 g in 100 g aqueous 1 mmol/L calcium chloride, 37° C. On the procedure:
(§1) If the ingredient (B) is liquid, the term “is precipitated by an aqueous solution of calcium chloride” means that the ingredient (B) forms precipitates or becomes turbid.
Solubility of the ingredient (B) in an aqueous solution of 1 mmol/L calcium chloride was determined in the same way as above.

A short description of data set [4]: Solubility of ingredient (B) in tooth whitening ingredient (A), visual check for undissolved residues. To be noted: for Solubility in 1,3-butylene glycol: 0.1 g in 100 g 1,3-butylene glycol; for Solubility in PEG#300 (Av. MW 280-320): 0.1 g in 100 g PEG#300, 37° C. On the procedure: as §1
A sample (0.1 g) of the ingredient (B) is added to 100 g of the tooth whitening ingredient (A), and the resulting mixture is stirred at 37° C. for 16 hours and allowed to stand at 37° C. for 24 hours. The mixture is visually examined for undissolved residues of the ingredient (B).
Criterion for Overall Rating: • ◯: More than 0.1 g is soluble in 100 g of ingredient (A) and less than 0.1 g is soluble in 100 g of aqueous solution of 1 mmol/L calcium chloride.
X: Other than specified above.

With `CC(O)CO` (stereo not shown) [Propylene glycol], in data set [1], the “Relative Permittivity (at 25° C.)” value was 32.0. The “Vapor pressure kPa (at 25° C.)” value in data set [2] is given as 1 kPa.
In the same order, the values of `CC(O)CCO` (stereo not shown) [1,3-dibutylene glycol] are 33.5 and 108 kPa.
For `CCCCCCCCCCCC(=O)O` [Lauric acid, reference compound], the “Solubility in Aqueous solution of 1 mmol/L calcium chloride” value (shortened to “Solubility … of 1 mmol/L calcium chloride”) in data set [3] is given as “◯ (solubility more than 0.1 g (no undissolved residues))”. The “Solubility in 1,3-butylene glycol” value in data set [4] (37° C.) was “◯ (solubility more than 0.1 g (no undissolved residues))”.
On to `OCCOCCO` [Diethylene glycol], for which, in data set [1], the “Relative Permittivity (at 25° C.)” value amounted to 33.0. In addition, the “Vapor pressure kPa (at 25° C.)” value in data set [2] came to 11 kPa.
`CCCCCCCCCCCCCC(=O)O` [Myristic acid]: the “Solubility … of 1 mmol/L calcium chloride” value in data set [3] was “X (solubility less than 0.1 g (with undissolved residues))”. The “Solubility in PEG#300 (Av. MW 280-320)” value in data set [4] was “◯ (solubility more than 0.1 g (no undissolved residues))”.
For `OCCO` [Ethylene glycol], the “Relative Permittivity (at 25° C.)” value in data set [1] was 37.7. Also, the “Vapor pressure kPa (at 25° C.)” value in data set [2] was 59 kPa.
In the case of `CC(O)COC(C)CO` (stereo not shown) [Dipropylene glycol], the “Relative Permittivity (at 25° C.)” value in data set [1] is 26.2. Moreover, the “Vapor pressure kPa (at 25° C.)” value in data set [2] came out at 0 kPa.
Consider `CCCCCCCC/C=C\CCCCCCCCCCCC(=O)O` [Erucic acid], for which the “Solubility … of 1 mmol/L calcium chloride” value in data set [3] is given as “X (solubility less than 0.1 g (with undissolved residues))”. In addition, in data set [4], the “Solubility in PEG#300 (Av. MW 280-320)” value is recorded as “◯ (solubility more than 0.1 g (no undissolved residues))”.
For `CCCCCC/C=C\CCCCCCCC(=O)O` [Palmitoleic acid], the “Solubility … of 1 mmol/L calcium chloride” value in data set [3] was “X (solubility less than 0.1 g (with undissolved residues))”. In data set [4] (37° C.), the “Solubility in 1,3-butylene glycol” value is “◯ (solubility more than 0.1 g (no undissolved residues))”. In data set [4], the “Solubility in PEG#300 (Av. MW 280-320)” value is on record as “◯ (solubility more than 0.1 g (no undissolved residues))”. The “Solubility in Propylene glycol” value in data set [4] (0.1 g in 100 g Propylene glycol, 37° C.) is on record as “◯ (solubility more than 0.1 g (no undissolved residues))”.
On to `O` [Water], for which the “Relative Permittivity (at 25° C.)” value in data set [1] is 78.3.
`CCO` [Ethanol]: the “Relative Permittivity (at 25° C.)” value in data set [1] is 24.6. In data set [2], the “Vapor pressure kPa (at 25° C.)” value is listed as 7948 kPa.
Turning to `OCC(O)CO` [Glycerin], in data set [1], the “Relative Permittivity (at 25° C.)” value amounted to 42.5. The “Vapor pressure kPa (at 25° C.)” value in data set [2] is 3 kPa.
With `CCCCCCCC/C=C\CCCCCCCC(=O)O` [Oleic acid], in data set [3], the “Solubility … of 1 mmol/L calcium chloride” value was “X (solubility less than 0.1 g (with undissolved residues))”. The “Solubility in PEG#300 (Av. MW 280-320)” value in data set [4] is recorded as “◯ (solubility more than 0.1 g (no undissolved residues))”.
Consider `[Cl-].[Cl-].[Zn+2]` [Zinc chloride, reference compound], for which the “Solubility … of 1 mmol/L calcium chloride” value in data set [3] is reported as “◯ (solubility more than 0.1 g (no undissolved residues))”. For the same molecule, the “Solubility in 1,3-butylene glycol” value in data set [4] (37° C.) was “◯ (solubility more than 0.1 g (no undissolved residues))”.
In the case of `CC(C)O` [Isopropanol], the “Relative Permittivity (at 25° C.)” value in data set [1] was determined as 19.9. Besides, the “Vapor pressure kPa (at 25° C.)” value in data set [2] was found to be 5819 kPa.
